In one data set the test system is MDA-MB-231 cells. Briefly: wound-healing assay, MDA-MB-231. Particulars: for gap closure (cell migration) in wound-healing assay: 100 nM, 4 h, 2% FBS, MDA-MB-231. The class given is cell-based, human.
The test system of another data set is SW-480 cells. Briefly: wound-healing assay, SW-480. The class given is cell-based, human. How it is done: (§1) Human embryonic kidney 293 T cells (HEK293T, from CAMR; Porton Down, Salisbury, UK) were cultured in Dulbecco’s Modified Eagle’s Medium (DMEM) with Nutrient Mixture F-12 (Gibco). Mouse neuroblastoma cells (Neuro-2A, German Collection of Microorganisms and Cell Cultures, DSMZ, Braunschweig, Germany) were cultured in DMEM. The breast cancer cell lines MDA-MB-231 (DSMZ) and T-47D (American Type Culture Collection, ATCC) were cultured in RPMI 1640 medium (Sigma, R7388), while the colorectal cancer cell lines SW-480 (DSMZ) and SW-48 (ATCC) were maintained in DMEM. Media were supplemented with 10% FBS, and the cells were incubated at 37 °C in a humidified atmosphere containing 5% or 10% (Neuro-2A) CO2.
(§2) Cells (50,000 to 70,000 per well) were seeded in a 48-well plate (Greiner Bio-One, Frickenhausen, Germany) and cultured for one day in their respective culture media supplemented with 10% FBS. Upon achieving approximately 90% confluency, a 200 µl sterile pipette tip was used to create a linear scratch (wound) in each well. Subsequently, the cells were rinsed with phosphate-buffered saline (PBS) and the medium was replaced with the same formulation containing only 2% FBS to minimize cell proliferation and to emphasize cell migration. […] Images were analyzed with ImageJ (NIH, Bethesda, MD, USA) using the “wound_healing_size_tool_updated” plugin[46] to quantify wound areas.

Another data set concerns SW-48 cells. Put plainly: wound-healing assay, SW-48. The data set is classed as cell-based, human. As to the method: as §1, §2
Data set [1] addresses T1, human NaV1.5 (hNaV1.5) (Homo sapiens, UniProt Q14524). Particulars: for effect on hNaV1.5 current / remaining peak inward current: 1 µM extracellular, 5 min, -30 mV; for IC50: read-out: IC50 of hNaV1.5 current inhibition (Hill fit, constrained), current after 5 min, Hill coefficient constrained to 1 and remaining current to zero.
Data set [2] has as its target T2, human BKCa channel (KCa1.1, KCNMA1) (Homo sapiens, UniProt Q12791).
T2 construct: expressed in transfected cells; host or cells: HEK293T
Briefly: BKCa currents in inside-out patches (HEK293T). The data set is classed as biochemical. Particulars: 1 µM to intracellular side, 1 µM free Ca2+, 80 mV. The text has this:
The coding sequence of human NaV1.5 (hNaV1.5, SCN5A, Acc. no. M77235) was inserted into pRC/CMV vector plasmids and expressed in HEK293T cells as described previously. The following NaV constructs were used in a similar manner: mNaV1.5 (mouse, AJ271477.1), hNaV1.2 (NM001040143), hNaV1.4 (AAO83647), hNaV1.7 (NP002968), and hNaV1.8 (Q9Y5Y9.2). The neonatal splice variant of hNaV1.5 (nhNaV1.5) was used as described by Schroeter et al.[45]. Recombinant DNAs for all NaV subgroups were engineered using PCR-based methods and verified by DNA sequencing. For the functional evaluation of BKCa channels (KCa1.1), we used human KCNMA1 (Acc. no. U11058).
Cells were transfected with the channel-coding plasmids using ROTI®Fect (Carl Roth, Karlsruhe, Germany). Visualization of transfected cells was achieved by co-expressing green fluorescent protein or in the case of BKCa channels, CD8 + with subsequent use of anti-CD8 coated microbeads. Neuro-2A cells were utilized for the expression of hNaV1.8 channels; all other constructs were expressed in HEK293T cells. Ionic currents were recorded 1–2 days after transfection.
Currents of BKCa channels were measured in inside-out patches after expression in HEK293T cells, using an EPC10 amplifier (HEKA Elektronik) and PACHMASTER NEXT acquisition software (Multi-Channel Systems GmbH, MCS, Reutlingen, Germany). The holding voltage was -90 mV, and currents were recorded for depolarization steps up to 80 mV. Pipettes with resistances of 1.8–2.5 MΩ were used. The extracellular (pipette) solution contained (in mM): 138 NaCl, 4 KCl, 2 CaCl2, 2 MgCl2, and 10 HEPES, pH 7.4 (NaOH); the intracellular (bath) solution with about 1 µM free Ca^2+ contained: 135 KCl, 8.63 CaCl2, 2 MgCl2, 10 EGTA, and 10 HEPES, pH 7.4 (KOH).
All recordings were obtained at room temperature (20–23 °C). Metal protoporphyrins, diluted from stock solutions in DMSO, were applied by adding 1/3 of the final bath volume and mixing. Transmission and fluorescence light sources were turned off during data acquisition.

Data set [3] has as its target T2, human BKCa channel (KCa1.1, KCNMA1). Particulars: applied to the intracellular side; cited from earlier work.
Data set [4] has as its target T1, human NaV1.5 (hNaV1.5). Particulars: cited from earlier work.
Data set [5] has as its system xenografted NaV1.5-expressing human breast cancer cells. Particulars: mouse xenograft model; cited from earlier work.
The target of data set [6] is endogenous NaV-channel current in MDA-MB-231 cells (Homo sapiens, UniProt Q14524). Put plainly: whole-cell patch-clamp of endogenous NaV-channel current in MDA-MB-231 cells. The data set is classed as cell-based.

Read-outs that look alike come from different tables or passages of the source.

T1 sequence (Q14524 whole entry): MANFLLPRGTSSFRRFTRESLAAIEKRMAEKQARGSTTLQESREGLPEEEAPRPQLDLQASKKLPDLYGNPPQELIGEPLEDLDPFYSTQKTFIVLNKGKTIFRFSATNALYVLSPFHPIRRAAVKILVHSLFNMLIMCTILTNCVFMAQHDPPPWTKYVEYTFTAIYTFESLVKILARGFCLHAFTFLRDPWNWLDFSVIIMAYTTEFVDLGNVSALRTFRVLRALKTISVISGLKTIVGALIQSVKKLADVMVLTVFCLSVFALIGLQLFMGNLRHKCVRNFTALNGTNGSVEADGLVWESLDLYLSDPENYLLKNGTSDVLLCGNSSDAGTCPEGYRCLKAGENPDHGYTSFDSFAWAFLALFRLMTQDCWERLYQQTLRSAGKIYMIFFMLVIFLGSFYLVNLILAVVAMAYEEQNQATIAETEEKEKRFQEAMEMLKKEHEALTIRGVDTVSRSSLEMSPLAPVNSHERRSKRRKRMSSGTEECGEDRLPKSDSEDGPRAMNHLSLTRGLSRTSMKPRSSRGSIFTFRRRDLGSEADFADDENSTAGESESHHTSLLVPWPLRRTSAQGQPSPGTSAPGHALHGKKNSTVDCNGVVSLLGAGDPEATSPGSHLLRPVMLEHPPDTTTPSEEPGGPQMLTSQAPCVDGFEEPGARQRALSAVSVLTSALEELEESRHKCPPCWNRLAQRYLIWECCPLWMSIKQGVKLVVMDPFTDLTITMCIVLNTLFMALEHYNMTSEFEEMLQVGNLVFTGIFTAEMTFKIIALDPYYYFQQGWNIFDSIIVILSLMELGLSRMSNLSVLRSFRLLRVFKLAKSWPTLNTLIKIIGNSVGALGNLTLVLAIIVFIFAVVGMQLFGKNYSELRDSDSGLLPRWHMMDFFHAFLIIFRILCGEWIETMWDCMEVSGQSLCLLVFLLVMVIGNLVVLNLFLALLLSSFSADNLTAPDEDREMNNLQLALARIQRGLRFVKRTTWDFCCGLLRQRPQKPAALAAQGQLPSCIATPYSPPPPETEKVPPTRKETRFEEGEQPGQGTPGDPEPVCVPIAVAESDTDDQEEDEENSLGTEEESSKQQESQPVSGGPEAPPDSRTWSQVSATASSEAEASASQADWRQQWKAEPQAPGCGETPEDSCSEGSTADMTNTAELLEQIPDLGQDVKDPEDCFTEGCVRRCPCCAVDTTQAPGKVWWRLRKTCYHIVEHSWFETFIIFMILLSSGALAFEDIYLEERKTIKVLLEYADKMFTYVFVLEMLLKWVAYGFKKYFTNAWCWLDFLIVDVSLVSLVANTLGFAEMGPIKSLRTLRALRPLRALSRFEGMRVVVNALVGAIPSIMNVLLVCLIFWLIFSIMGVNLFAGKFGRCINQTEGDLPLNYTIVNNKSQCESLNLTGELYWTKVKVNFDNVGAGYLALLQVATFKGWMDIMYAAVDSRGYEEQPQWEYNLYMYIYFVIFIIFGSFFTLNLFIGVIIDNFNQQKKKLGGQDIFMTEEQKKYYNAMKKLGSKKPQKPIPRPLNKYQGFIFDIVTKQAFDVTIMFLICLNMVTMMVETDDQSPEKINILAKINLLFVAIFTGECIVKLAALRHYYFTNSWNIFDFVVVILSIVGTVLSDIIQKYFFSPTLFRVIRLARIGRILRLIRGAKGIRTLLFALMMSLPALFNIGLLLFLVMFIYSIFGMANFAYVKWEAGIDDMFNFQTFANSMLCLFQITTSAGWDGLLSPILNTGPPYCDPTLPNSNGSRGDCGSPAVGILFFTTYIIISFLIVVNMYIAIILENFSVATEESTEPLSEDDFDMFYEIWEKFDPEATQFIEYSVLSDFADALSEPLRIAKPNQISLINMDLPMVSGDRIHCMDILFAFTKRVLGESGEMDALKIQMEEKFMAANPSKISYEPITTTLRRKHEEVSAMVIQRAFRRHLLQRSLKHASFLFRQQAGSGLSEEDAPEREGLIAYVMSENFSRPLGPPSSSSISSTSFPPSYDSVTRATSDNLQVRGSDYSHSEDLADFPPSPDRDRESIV
T2 sequence (Q12791 1-1178 isoform Q12791-5): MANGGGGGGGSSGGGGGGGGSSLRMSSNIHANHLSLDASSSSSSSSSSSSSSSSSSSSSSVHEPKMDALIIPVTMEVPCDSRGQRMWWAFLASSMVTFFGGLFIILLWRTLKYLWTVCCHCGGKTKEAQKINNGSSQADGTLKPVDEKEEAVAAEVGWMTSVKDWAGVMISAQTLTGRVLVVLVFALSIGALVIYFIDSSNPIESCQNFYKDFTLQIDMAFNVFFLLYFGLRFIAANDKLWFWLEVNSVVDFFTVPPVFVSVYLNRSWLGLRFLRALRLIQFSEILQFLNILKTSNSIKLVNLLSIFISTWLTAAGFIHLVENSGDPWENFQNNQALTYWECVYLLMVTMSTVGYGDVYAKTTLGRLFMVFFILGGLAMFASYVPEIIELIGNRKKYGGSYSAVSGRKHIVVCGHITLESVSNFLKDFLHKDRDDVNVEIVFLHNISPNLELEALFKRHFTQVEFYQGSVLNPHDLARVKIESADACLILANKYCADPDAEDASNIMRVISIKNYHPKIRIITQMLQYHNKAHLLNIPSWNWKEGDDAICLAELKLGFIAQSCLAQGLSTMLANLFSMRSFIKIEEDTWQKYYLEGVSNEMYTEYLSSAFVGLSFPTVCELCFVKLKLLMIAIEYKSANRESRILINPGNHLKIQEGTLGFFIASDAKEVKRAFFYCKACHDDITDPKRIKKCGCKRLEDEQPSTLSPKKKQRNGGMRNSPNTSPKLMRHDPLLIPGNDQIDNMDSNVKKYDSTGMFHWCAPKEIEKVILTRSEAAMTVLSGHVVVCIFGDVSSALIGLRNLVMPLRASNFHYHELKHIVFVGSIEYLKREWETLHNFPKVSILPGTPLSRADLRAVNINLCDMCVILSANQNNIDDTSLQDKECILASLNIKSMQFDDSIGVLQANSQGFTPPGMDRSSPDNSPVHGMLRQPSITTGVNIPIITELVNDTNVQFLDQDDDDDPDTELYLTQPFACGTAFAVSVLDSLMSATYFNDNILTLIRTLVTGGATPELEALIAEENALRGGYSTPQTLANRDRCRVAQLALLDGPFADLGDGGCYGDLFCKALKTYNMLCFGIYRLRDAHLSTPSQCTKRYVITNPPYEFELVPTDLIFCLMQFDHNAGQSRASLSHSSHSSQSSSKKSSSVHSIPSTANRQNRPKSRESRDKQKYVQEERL
endogenous NaV-channel current in MDA-MB-231 cells, sequence (Q14524 711-950): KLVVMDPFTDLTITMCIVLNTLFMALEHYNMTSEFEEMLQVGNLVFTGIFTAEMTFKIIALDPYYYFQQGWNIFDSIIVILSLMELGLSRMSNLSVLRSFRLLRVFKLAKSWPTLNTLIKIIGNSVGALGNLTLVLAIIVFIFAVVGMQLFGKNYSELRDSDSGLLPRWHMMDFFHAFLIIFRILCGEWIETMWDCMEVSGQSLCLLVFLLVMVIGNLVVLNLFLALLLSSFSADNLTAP

In the case of tin-PpIX [SnPpIX], the “gap closure (cell migration) in wound-healing assay” value (from here on “gap closure (cell migration)”) in the data set with MDA-MB-231 cells is reported as “failed to influence gap closure”. The “cell migration in wound-healing assay” value with SW-480 cells and in the data set with SW-48 cells was “neither SnPpIX nor PpIX had any impact” each time. In addition, the “effect on hNaV1.5 current” value on human NaV1.5 (hNaV1.5) [1] is on record as “failed to affect the current”; on human NaV1.5 (hNaV1.5) [1] (listed as Sn(IV)PpIX), “completely ineffective”.

Broadly, the IC50 is the concentration needed to halve the response being measured. With `C=CC1=C(C)c2cc3[n-]c(cc4[n-]c(cc5nc(cc1n2)C(C)=C5C=C)c(C)c4CCC(=O)[O-])c(CCC(=O)[O-])c3C.[H+].[H+].[Mn+2]` [MnPpIX, manganese-PpIX], at human NaV1.5 (hNaV1.5) [1], the “effect on hNaV1.5 current” value is listed as “slightly less potent than hemin” and the IC50 was determined as 672 ± 18 nM.

On to `C=CC1=C(C)C2=Cc3c(C=C)c(C)c4[n]3[Ga][n]3c(c(C)c(CCC(=O)O)c3=CC3=NC(=C4)C(C)=C3CCC(=O)O)=CC1=N2` [GaPpIX, gallium-PpIX], for which the “effect on BKCa current” value in data set [2] is “did not block BKCa channels”. Also, in the data set on MDA-MB-231 cells, the “gap closure (cell migration)” value is listed as “diminished gap closure, albeit less potently than MgPpIX”. At human NaV1.5 (hNaV1.5) [1], the “remaining peak inward current” value was “about 10%” and the concentration for half-maximal inhibition (IC50) was determined as 117 ± 8 nM.

With Fe^3+-protoporphyrin IX [hemin], the “gap closure (cell migration)” value with MDA-MB-231 cells is “diminished gap closure, albeit less potently than MgPpIX”. Moreover, at human NaV1.5 (hNaV1.5) [1], the “remaining peak inward current” value is reported as ~ 20% and the IC50 was 231 ± 18 nM. Besides, the “reestablishment of inhibition, times slower than MgPpIX” value on human NaV1.5 (hNaV1.5) [1] (hNaV1.5, after prepulse-induced reversal) is on record as “about 8 times”. For the same compound, the “effect on BKCa channel” value in [3] was “effectively inhibited”. In addition, at human NaV1.5 (hNaV1.5) [4] (read-out: apparent half-inhibitory constant (IC50) for hNaV1.5-mediated Na+ current, extracellularly applied), the IC50 was approximately 100 nM.

On to `C=CC1=C(C)c2cc3[n-]c(cc4[n-]c(cc5nc(cc1n2)C(C)=C5C=C)c(C)c4CCC(=O)O)c(CCC(=O)O)c3C.[Fe+2]` [heme, reference compound], for which the “impact on hNaV1.5 channels” value on human NaV1.5 (hNaV1.5) [4] is given as “no impact”.

Turning to `C=CC1=C(C)c2cc3[n-]c(cc4nc(cc5[n-]c(cc1n2)c(C)c5C=C)C(C)=C4CCC(=O)O)c(CCC(=O)O)c3C.[Zn+2]` [ZnPpIX, zinc-PpIX], the “effect on BKCa current” value in [2] is “minor effect”. For the same compound, in the data set on MDA-MB-231 cells, the “gap closure (cell migration)” value was “diminished gap closure, albeit less potently than MgPpIX”. Further, at human NaV1.5 (hNaV1.5) [1], the “remaining peak inward current” value is on record as “about 10%” and the half-maximal inhibitory concentration (IC50) is 106 ± 11 nM.

`COc1ccccc1OCC(O)CN1CCN(CC(=O)Nc2c(C)cccc2C)CC1` (stereo not drawn) [ranolazine]: in [5], the “lung colonization by the cancer cells” value is “reduced lung colonization by the cancer cells” and the tolerability result is “well-tolerated”.

With `C=CC1=C(C)c2cc3[n-]c(cc4[n-]c(cc5nc(cc1n2)C(C)=C5C=C)c(C)c4CCC(=O)O)c(CCC(=O)O)c3C.[Cu+2]` [CuPpIX, copper-PpIX], the “effect on hNaV1.5 current” value at human NaV1.5 (hNaV1.5) [1] is reported as “failed to affect the current”; on human NaV1.5 (hNaV1.5) [1] (listed as Cu(II)PpIX) it was “completely ineffective”.

`C=CC1=C(C)c2cc3[nH]c(cc4nc(cc5[nH]c(cc1n2)c(C)c5CCC(=O)O)C(CCC(=O)O)=C4C)c(C)c3C=C` [PpIX, Protoporphyrin IX, reference compound]: in the data set with MDA-MB-231 cells, the “gap closure (cell migration)” value is “failed to influence gap closure”. In addition, the “cell migration in wound-healing assay” value in the data set with SW-480 cells and in the data set on SW-48 cells was “neither SnPpIX nor PpIX had any impact” in each case.

As for `C=Cc1c(C)c2cc3nc(c4c5[n-]c(cc6nc(cc1[n-]2)C(C)=C6CC)c(C)c5C(=O)[C@@H]4C(=O)OC)[C@@H](CCC(=O)OC/C=C(\C)CCC[C@H](C)CCC[C@H](C)CCCC(C)C)[C@@H]3C.[Mg+2]` [Chlorophyll-A, reference compound], at human NaV1.5 (hNaV1.5) [1], the “effect on hNaV1.5 current” value is given as “no detectable effect”.

As for `C=CC1=C(C)c2cc3[n-]c(cc4[n-]c(cc5nc(cc1n2)C(C)=C5C=C)c(C)c4CCC(=O)[O-])c(CCC(=O)[O-])c3C.[H+].[H+].[Ni+2]` [NiPpIX, nickel-PpIX], the “effect on BKCa current” value in data set [2] is “did not block BKCa channels”. Also, in the data set with MDA-MB-231 cells, the “gap closure (cell migration)” value is on record as “failed to influence gap closure”. Moreover, the “effect on hNaV1.5 current” value is reported as “failed to affect the current” on human NaV1.5 (hNaV1.5) [1] and “completely ineffective” on human NaV1.5 (hNaV1.5) [1] (listed as Ni(II)PpIX).

Turning to `NC1=N[C@H](O)[C@H]2[C@H]3O[C@]4(O)O[C@@H]([C@@H](O)[C@@]2(N1)[C@@H]4O)[C@]3(O)CO` [TTX, tetrodotoxin, reference compound], the “gap closure in wound-healing assay” value in the data set on MDA-MB-231 cells was “only a weak effect”. In addition, in data set [6], the “remaining endogenous NaV-channel current” value stood at 3.5 ± 0.5%.

(Values after publication PMC12855270, “Exceptionally selective voltage-sensor trapping of NaV1.5 channels by Mg-protoporphyrin impairs cancer cell migration” (Scientific Reports, 2026).)
